Here are results for four molecules from PMC8032668, “Evaluation of carboxyfluorescein-labeled 7-methylguanine nucleotides as probes for studying cap-binding proteins by fluorescence anisotropy” (Scientific Reports, 2021).

Experiment [1] addresses T1, eIF4E (Mus musculus, UniProt P63073).
T1 construct: Murine eIF4E (residues 28–217) was expressed in E. coli; made in house; host or cells: E. coli
Kind of experiment: FA competition (probe-displacement) assay for eIF4E. The experiment is classed as binding, Murine. Particulars: for EC50: HEPES pH 7.2. On the procedure:
Inclusion bodies containing eIF4E were solubilized in 50 mM HEPES/KOH (pH 7.2) buffer containing 10% glycerol, 6 M guanidine hydrochloride and 2 mM DTT. Protein was then refolded during a two-step dialysis against buffer with decreasing concentration of guanidine hydrochloride in the presence of 100 mM KCl. Subsequently eIF4E was loaded on ion exchange HiTrap SP HP column (GE Healthcare), eluted with linear gradient of 0.1–1 M KCl and finally desalted and polished during a gel filtration purification step on HiLoad 16/600 Superdex 75 pg (GE Healthcare) using 50 mM HEPES pH 7.2, 100 mM KCl, 0.5 mM EDTA, 2 mM DTT buffer. eIF4E was aliquoted and stored in the presence of 10% glycerol at −80 °C. Before each experiment the protein was centrifuged on Ultrafree-MC Centrifugal PVDF filter with […] pore size (Millipore), at 4 °C and 3000×g for 2 min to remove any possible aggregates.
(§1) Experiments were carried out at 25 °C in 96-well non-binding microplates with sample volume of 200 µl per well. Two different buffers were used depending on protein used in the assay:
eIF4E assay buffer—50 mM HEPES (pH 7.2), 100 mM KCl, 0.5 mM EDTA, 1 mM DTT.
(§2) For competitive binding assay, a mixture containing the probe and the protein was incubated with the tested ligand.
(§3) In competitive measurements, a constant concentration of the protein and fluorescent probe and increasing concentration of the test ligand were used. At least 12 point dilutions of the tested compound were used. The experiments were carried out in 96-well plates. Each sample contained a mixture consisting of the probe, tested ligand and buffer (same as for the direct binding assay). The samples were incubated for 10 min at 25 °C with simultaneous shaking, then the protein was added to each well, incubated for additional 3 min, followed by the measurement of fluorescence anisotropy. FA signals were recorded for 20 min with 2 min intervals.

Experiment [2] concerns the target T2, DcpS (Homo sapiens, UniProt Q96C86).
T2 construct: His tag; made in house; host or cells: E. coli BL21(DE3) RIL
T2 sequence (Q96C86 1-337): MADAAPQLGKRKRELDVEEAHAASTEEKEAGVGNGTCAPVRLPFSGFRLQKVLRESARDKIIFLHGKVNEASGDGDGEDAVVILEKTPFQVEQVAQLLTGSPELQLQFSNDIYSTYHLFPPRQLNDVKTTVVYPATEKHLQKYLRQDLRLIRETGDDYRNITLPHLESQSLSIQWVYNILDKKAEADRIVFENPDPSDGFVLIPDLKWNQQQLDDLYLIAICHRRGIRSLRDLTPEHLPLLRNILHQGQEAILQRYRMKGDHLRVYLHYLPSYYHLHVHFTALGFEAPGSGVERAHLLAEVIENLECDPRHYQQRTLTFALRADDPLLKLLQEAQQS
Briefly: FA competition assay for DcpS. The format is binding. How it is done: Expression of recombinant His-tagged human DcpS was performed in BL21(DE3) RIL strain and induced overnight at 18 °C using 0.5 mM IPTG as described previously. Cells were harvested, resuspended in buffer (50 mM Tris pH 7.6, 500 mM NaCl, 20 mM imidazole) with lysozyme (0.1 mg/ml) and protease inhibitors (1 mM PMSF, 1 µM pepstatin A, 0.3 µM aprotinin) and then lysed using sonication. Lysate was clarified by centrifugation at 35 000 × g for 40 min at 4 °C. […] The enzyme hDcpS was purified to homogeneity on HiLoad 16/600 Superdex 200 pg (GE Healthcare) gel filtration column using 50 mM Tris·HCl pH 7.6, 200 mM NaCl, 2 mM DTT buffer. Protein was aliquoted and stored in the presence of 10% glycerol at -80 °C.
as §1
DcpS assay buffer—50 mM Tris–HCl (pH 7.6), 200 mM KCl, 0.5 mM EDTA, 1 mM DTT.
as §2, §3

The test system of experiment [3] is DcpS. The arrangement: method as in PMID 27031609. Particulars: DcpS inhibition, FR assay; cited from earlier work.
Experiment [4] deals with T2, DcpS. Briefly: FA screening of in-house library, 2i:DcpS system. As to conditions: 1 nM 2i, 25 nM DcpS, 1.5 µM inhibitor. The format is binding. On the procedure:
The Z’ factor was determined under conditions optimized for the competition assay. The Z’ value exceeded 0.8 for incubation times up to 1 h, making the assay suitable for screening experiments (Table 5). A screening experiment was then performed using the same compound library as that used for eIF4E screening. The results highlighted the impact of the triphosphate bridge modification on the affinity for the protein. […] The FA method also enabled the identification of unstable compounds, e.g., hydrozylable ligands for which determination of affinity is problematic (as observed by FA signal changes during the experiment; Fig. 7).
To evaluate the quality of the assay, the Z’ factor was determined for several protein-probe combinations. The assay was performed on 96-well microplates, where half of the samples were negative controls and the other half were positive controls.
For the screening experiments a small in-house library containing 21 ligands was used. Experiments were conducted in the same manner as Z’ factor determination, with exception that the ligand concentration was modified (eIF4E screening conditions: 1 nM 1e, 100 nM eIF4E, 750 nM ligand, DcpS screening conditions: 1 nM 2i, 25 nM DcpS, 1.5 µM ligand). For eIF4E screening experiment, the 1e:eIF4E system was used, for DcpS screening 2i:DcpS system was used.

Experiment [5] has as its system eIF4E. Also on record: method as in PMID 22316555. As to conditions: cited from earlier work.
In another experiment the target is 4G peptide (UniProt Q04637). Briefly: fluorescence anisotropy. Particulars: cited from earlier work.
[6] abbreviates: Probe 1a: 10 nM probe 1a and 100 nM eIF4E.
The mark [7] stands for this setting: Probe 1b: 1 nM probe 1b and 15 nM eIF4E.
Setting [8] is: Probe 1e: footnote c, 1 nM probe 1c and 100 nM eIF4E.
[9] abbreviates: 1f:DcpS system, 1f and 100 nM DcpS.
Setting [10] is: 2g:DcpS system, 2 nM 2g and 25 nM DcpS.
The mark [11] stands for this setting: 2i:DcpS system, 1 nM 2i and 25 nM DcpS.
Setting [12] is: 2h:DcpS system, 2 nM 2h and 25 nM DcpS.

T1 sequence (P63073 28-217): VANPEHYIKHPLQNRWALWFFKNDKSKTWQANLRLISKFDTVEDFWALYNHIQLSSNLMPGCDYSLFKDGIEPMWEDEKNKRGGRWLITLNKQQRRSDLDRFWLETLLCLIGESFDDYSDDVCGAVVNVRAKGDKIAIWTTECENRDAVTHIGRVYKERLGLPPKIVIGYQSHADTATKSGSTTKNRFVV
Chain of eIF4E (from UniProt P06730) (P06730 2-217): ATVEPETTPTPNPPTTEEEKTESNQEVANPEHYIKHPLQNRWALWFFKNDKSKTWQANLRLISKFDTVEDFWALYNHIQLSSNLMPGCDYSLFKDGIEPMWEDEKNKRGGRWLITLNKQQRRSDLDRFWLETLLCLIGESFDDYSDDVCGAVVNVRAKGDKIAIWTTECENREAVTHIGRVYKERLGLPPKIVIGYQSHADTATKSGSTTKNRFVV

Broadly, the Hill slope is a measure of the steepness of the concentration-response curve. Broadly, the EC50 is the midpoint of the concentration-response curve. As usually defined, the IC50 is the concentration that gives 50% inhibition. Regarding `Cn1c[n+]([C@@H]2O[C@H](COP(=O)(O)OP(=O)([O-])O)[C@@H](O)[C@H]2O)c2nc(N)[nH]c(=O)c21` [m^7GDP], the Hill slope on eIF4E [1] (setting [6]) is listed as 1.36 ± 0.03; on eIF4E [1] (setting [7]), 1.16 ± 0.04; on eIF4E [1] (setting [8]), 1.08 ± 0.07; at DcpS [2] (setting [9]), 1.98 ± 0.18; on DcpS [2] (setting [10]), 1.55 ± 0.09; at DcpS [2] (setting [11]) it was 1.42 ± 0.06. On DcpS [2] (setting [12]), this molecule had a Hill slope of 1.06 ± 0.37. Further, the EC50 worked out at 204 ± 5.5 nM at eIF4E [1] (setting [6]); 212 ± 30 nM at eIF4E [1] (setting [7]); 216 ± 11 nM on eIF4E [1] (setting [8]); 36.5 ± 3.6 nM on DcpS [2] (setting [9]); 16.4 ± 0.2 nM at DcpS [2] (setting [10]); 36.2 ± 4.7 nM on DcpS [2] (setting [11]). Further, the midpoint of the response at DcpS [2] (setting [12]), the EC50, lay at 31.2 ± 10.7 nM. The IC50 in the experiment on DcpS [3] was 5200 ± 1200 nM.
Take `C[n+]1cn([C@@H]2O[C@H](COP(=O)([O-])NP(=O)(O)OP(=O)(O)OC[C@H]3O[C@@H](n4cnc5c(=O)[nH]c(N)nc54)[C@H](O)[C@@H]3O)[C@@H](O)[C@H]2O)c2nc(N)[nH]c(=O)c21.N.N` [m^7GpNHppG]: the EC50 came to 27.8 ± 2.7 nM at DcpS [2] (setting [9]), 11.6 ± 0.4 nM on DcpS [2] (setting [10]), 17.9 ± 1.3 nM on DcpS [2] (setting [11]) and 18.1 ± 5 nM on DcpS [2] (setting [12]). For the same molecule, the Hill slope at DcpS [2] (setting [9]) is 2.26 ± 0.16; on DcpS [2] (setting [10]) it was 1.95 ± 0.07; at DcpS [2] (setting [11]) it was 1.66 ± 0.10; on DcpS [2] (setting [12]), 1.23 ± 0.44. Further, the “inhibitory potency in DcpS screening” value at DcpS [4] is recorded as “strong DcpS inhibitors”. For the same molecule, in the experiment with DcpS [3], the IC50 is 3200 ± 900 nM.
For `C[n+]1cn([C@@H]2O[C@H](COP(=O)([O-])NP(=O)([O-])OP(=O)([O-])OP(=O)([O-])OC[C@H]3O[C@@H](n4cnc5c(=O)[nH]c(N)nc54)[C@H](O)[C@@H]3O)[C@@H](O)[C@H]2O)c2nc(N)[nH]c(=O)c21.[Na+].[Na+].[Na+]` [m^7GpNHpppG], the “inhibitory potency in DcpS screening” value on DcpS [4] was “strong DcpS inhibitors”. For the same molecule, the “association constant KAS” value in the experiment with eIF4E [5] is 112.3 ± 1.8 µM⁻¹.
Broadly, the Kd is the equilibrium constant for the complex coming apart. Consider eIF4E (from UniProt P06730), for which the Kd in the experiment with 4G peptide is 25000 nM.
